Here are results for two compounds from US9180088B2, “Fulvestrant formulations” (SCIDOSE, LLC, priority 2008, dated 2015).

Converted amounts (≈) assume the structure as drawn.

A short description of data set [1]: solubility of fulvestrant in solvents. It counts as physicochemical.
Data set [2] deals with subplanar paw of the rat. Kind of data set: rat paw lick test. The note with it: 0.1 ml of solvent system injected on the subplanar paw of the rat. It is filed as in vivo. The procedure: In this method 0.1 ml of the solvent system is injected on the subplanar paw of the rat and the irritation is measured by the number of time that rat licks its paw over 15 minutes. This is quite quantitative and the number licks correlate to the irritation of the system.

The term solubility denotes how much of the substance goes into solution per volume. As to `C[C@]12CC[C@@H]3c4ccc(O)cc4C[C@@H](CCCCCCCCC[S+]([O-])CCCC(F)(F)C(F)(F)F)[C@H]3[C@@H]1CC[C@@H]2O` (stereo partly drawn) [fulvestrant, 7-alpha-[9-(4,4,5,5,5-pentafluoropentylsulphinyl)nonyl]estra-1,3,5-(10)-triene-3,17-beta-diol], the solubility in data set [1] (20 mg/ml Lutrol in PEG 400 (2% Lutrol in PEG 400), organic solvent or mixture, in 20 mg/ml of Lutrol in PEG 400 (2% Lutrol in PEG 400)) was 66.7 mg/mL (≈ 110 mM); in data set [1] (20 mg/ml Lutrol in propylene glycol, organic solvent or mixture, in 20 mg/ml of Lutrol in PG), 22.7 mg/mL (≈ 37.4 mM); in data set [1] (1,4-dioxane, organic solvent or mixture, in 1,4 Dioxan) it was 833 mg/mL (≈ 1370 mM); in data set [1] (10% ethanol/0.9% benzyl alcohol/30% PEG 400 in water (v/v), aqueous with cosolvent or surfactant or cyclodextrin, in 10% Ethanol/0.9% Benzylalcohol/30% PEG 400 in Water (v/v)) it was 10 mg/mL (≈ 16.5 mM); in data set [1] (20-50 mg/ml Lutrol in dihydrolipoic acid, organic solvent or mixture, in 20-50 mg/ml Lutrol in dihydrolipoic acid), > 350 mg/mL; in data set [1] (50% dihydrolipoic acid/50% lipoic acid, organic solvent or mixture, in 50% dihydrolipoic acid/50% lipoic acid), > 350 mg/mL. For the same compound, the solubility in data set [1] (Lutrol/PEG400/propylene glycol blends, organic solvent or mixture, in the Lutrol/PEG400/propylene glycol blends) was 50 mg/mL (≈ 82.4 mM); in data set [1] (N-methylpyrrolidone, organic solvent or mixture, in N-Methylpyrrolidone), 864 mg/mL (≈ 1420 mM); in data set [1] (PEG 400 + propylene glycol (1:1), organic solvent or mixture, in PEG 400 + PG (1:1)), 50 mg/mL; in data set [1] (PEG-400 (neat), organic solvent or mixture, in PEG-400 (neat)), 22.5 mg/mL (≈ 37.1 mM); in data set [1] (aqueous with cosolvent or surfactant or cyclodextrin, in 10% Ethanol/0.9% Benzylalcohol/30% PEG 400/20 mg per ml Lecithin, in Water), 5 mg/mL (≈ 8.24 mM); in data set [1] (dihydrolipoic acid, organic solvent or mixture, in Dihydrolipoic acid), > 450 mg/mL. Besides, the solubility came out at 7.8 mg/mL (≈ 12.9 mM) in data set [1] (ethyl acetate, organic solvent or mixture, in Ethyl acetate); 400 mg/mL (≈ 659 mM) in data set [1] (glycofurol, organic solvent or mixture, in Glycofurol); 50 mg/mL in data set [1] (organic solvent or mixture, in 0.7 ml of (20 mg/ml of Lutrol in PEG 400) + 0.3 ml of Propylene Glycol); 50 mg/mL in data set [1] (organic solvent or mixture, in 0.8 ml of (20 mg/ml of Lutrol in PEG 400) + 0.2 ml of Propylene Glycol); 10 mg/mL (≈ 16.5 mM) in data set [1] (organic solvent or mixture, in 10% Ethanol/0.9% Benzylalcohol in PEG 400 (V/V, QS with PEG 400)); 4 mg/mL (≈ 6.59 mM) in data set [1] (propylene glycol (neat), organic solvent or mixture, in Propylene Glycol (neat)). Moreover, the solubility in data set [1] (t-butanol, organic solvent or mixture, in T-butanol) is 194 mg/mL (≈ 320 mM). The solubility of fulvestrant entry in data set [1] (in 0.9% Benzyl alcohol in Water), in data set [1] (in 2% Benzyl alcohol in Water), in data set [1] (in 10% Ethanol), in data set [1] (in 10% Ethanol (in water) + PEG 400 (1:1)), in data set [1] (in 30% Ethanol (in water)) and in data set [1] (in 50% Ethanol (in water)) was “Insoluble” in each case. Moreover, the solubility of fulvestrant result in data set [1] (in Aq.PVP K-30 solution (40 mg in 2 ml distil water)) is given as “Insoluble”; in data set [1] (in Cetylalcohol), 20 mg/1 g; in data set [1] (in Fat emulsion), “Insoluble”; in data set [1] (in Hydroxy Ethyl Starch (10%)), “Insoluble”; in data set [1] (in Lauryl macrogol - 32 glyceride (Gelucire 44/14 by Gattefosse)) it was “Insoluble”; in data set [1] (in Lecithin (1%)) it was “Insoluble”. Also, the solubility of fulvestrant result in data set [1] (in Peanut Oil), in data set [1] (in Poloxamer(Lutrol f-68) (2% sol in water)), in data set [1] (in Sodium Citrate (30 Mmol)), in data set [1] (in TPGS 1000), in data set [1] (in Tween 20 (1%)) and in data set [1] (in Tween 80 (1%)) was “Insoluble” each time.
Consider Glycofurol [Test # 02], for which, in data set [2], the “IRRITABILITY (rating)” value is given as “No Irritation”. Besides, in data set [2] (15 minutes), the “number of times rat licks its paw in first 15 minutes” value is reported as “Zero lick in first 15 minutes”.
